# Measurements as given in the OPERA property sets (Mansouri et al. 2018).
# Conditions: not given
Compound,log10 Koc (L/kg),ready biodegradability,melting point,boiling point,log10 vapour pressure (mmHg),log10 Henry constant (atm·m³/mol),log10 biodegradation half-life (days),log10 Koa
CCOP(=S)(OCC)OCCSCC,2.59,–,–,–,–,–,–,–
CNC(=S)S,–,not readily biodegradable,–,–,–,–,–,–
CCCCCCCCCCC(Br)C(=O)O (stereo not given),–,–,32 °C,–,–,–,–,–
CCCCCN(CCCCC)CCCCC,–,–,–,242 °C,–,–,–,–
C#CC(C)(C)N,–,–,18 °C,79.5 °C,–,–,–,–
CCCCCCCCN(C)CCCCCCCC,–,–,-30.1 °C,–,–,–,–,–
CCCCC/C=C\C/C=C\C/C=C\C/C=C\CCCC(=O)O,–,–,-49.5 °C,–,–,–,–,–
C=CCC(C)(C)C,–,–,-137 °C,72.5 °C,–,–,–,–
CCCC[N+](=O)[O-],–,–,-81.3 °C,153 °C,0.579,–,–,–
CC(c1ccccc1)c1ccc(O)cc1 (stereo not given),–,not readily biodegradable,–,–,–,–,–,–
FC(F)(Cl)CCl,–,–,-101 °C,46.8 °C,2.53,–,–,–
CC1OC(C)OC(C)O1 (stereo not given),–,not readily biodegradable,12.6 °C,124 °C,1.04,–,–,–
NC(=S)C(N)=S,–,–,–,–,-5.78,–,–,–
N#Cc1ccc2[nH]ccc2c1,–,–,107 °C,–,–,–,–,–
CC(C)(C)c1ccc(C(=O)O)cc1,–,not readily biodegradable,164 °C,–,–,–,–,–
CCCCCCC(=O)CCCCCC,–,–,33 °C,261 °C,-2.18,–,–,–
Nc1ccccc1S(=O)(=O)O,–,not readily biodegradable,–,–,–,–,–,–
ClC1=C(Cl)C2(Cl)C3C4OC4C(Cl)C3C1(Cl)C2(Cl)Cl (stereo not given),4.02,–,160 °C,–,-4.71,-4.68,–,–
OC1CCOC1 (stereo not given),–,–,–,181 °C,–,–,–,–
COc1ccccc1NC(=O)CC(C)=O,–,–,86 °C,–,–,–,–,–
O=[N+]([O-])CC(O)C(Cl)(Cl)Cl (stereo not given),–,–,45.5 °C,–,–,–,–,–
C=CC1=CCCCC1,–,–,–,145 °C,–,–,–,–
CC(C)CCC[C@@H](C)[C@H]1CC[C@H]2[C@@H]3CC[C@@H]4C[C@H](O)CC[C@]4(C)[C@H]3CC[C@]12C,–,–,143 °C,–,–,–,–,–
O=c1[nH]ncc2ccccc12,–,–,188 °C,–,–,–,–,–
COC(=O)c1cccc(C)c1,–,–,–,221 °C,–,–,–,–

Compound,log10 Koc (L/kg),ready biodegradability,melting point,boiling point,log10 vapour pressure (mmHg),log10 Henry constant (atm·m³/mol),log10 biodegradation half-life (days),log10 Koa
CC(C)(C)N=C=S,–,–,10.5 °C,140 °C,–,–,–,–
c1ccc(-c2ccc3ncccc3c2)cc1,–,–,110 °C,–,–,–,–,–
O=C(NC(=O)c1c(F)cccc1F)Nc1ccc(OC(F)(F)C(F)OC(F)(F)F)c(Cl)c1 (stereo not given),–,–,178 °C,–,–,–,–,–
CCOC(=O)C(Br)C(C)Br (stereo not given),–,–,58.5 °C,–,–,–,–,–
CN(C)CC/C=C1\c2ccccc2CSc2ccccc21,–,–,56 °C,–,–,–,–,–
CCC(C)(C)C(=O)O,–,–,-14 °C,186 °C,-0.83,–,–,–
Nc1ccc2ccc3ccccc3c2c1,–,–,143 °C,–,–,–,–,–
Oc1ccc(O)c(O)c1,–,–,140 °C,–,–,–,–,–
CCC(C)OC(C)=O (stereo not given),–,readily biodegradable,-98.9 °C,112 °C,1.23,–,–,–
COc1ccc(CCl)cc1,–,–,24.5 °C,262 °C,–,–,–,–
COP(=S)(OC)Oc1ccc([N+](=O)[O-])cc1Cl,–,–,52.5 °C,–,-5.44,–,–,–
O=CN1CCOCC1,–,–,21 °C,239 °C,–,–,–,–
CCCCCCC(C)Nc1ccc(Nc2ccccc2)cc1 (stereo not given),–,not readily biodegradable,–,–,–,–,–,–
CCOCOCC,–,–,-66.5 °C,88 °C,1.53,–,–,–
CCC(C)Nc1ccc(NC(C)CC)cc1 (stereo not given),–,–,18 °C,–,–,–,–,–
CCc1cc(C)c(C)cc1C,–,–,-13.5 °C,213 °C,–,–,–,–
c1ccc(-c2noc(-c3ccccc3)n2)cc1,–,–,109 °C,290 °C,–,–,–,–
CC(C)(C)OC(=O)C1(S(=O)(=O)c2ccc(Cl)cc2)CC1,–,–,110 °C,–,–,–,–,–
c1ccc2c(c1)CCN2,–,–,–,229 °C,–,–,–,–
CCOC(=O)C1(C)OC(=O)N(c2cc(Cl)cc(Cl)c2)C1=O (stereo not given),–,–,113 °C,–,-7.02,–,–,–
C=C(Cl)CO,–,readily biodegradable,–,–,–,–,–,–
O=Cc1ccc(C=O)cc1,–,readily biodegradable,117 °C,246 °C,–,–,–,–
CCCCCCC=O,–,–,-43.3 °C,153 °C,0.546,-3.57,–,–
O=C(O)c1c(Cl)c(Cl)c(Cl)c(Cl)c1C(=O)O,3.3,–,–,–,–,–,–,–
CCCC(C)(C)C(C)(C)C,–,–,-54 °C,160 °C,0.589,–,–,–

Compound,log10 Koc (L/kg),ready biodegradability,melting point,boiling point,log10 vapour pressure (mmHg),log10 Henry constant (atm·m³/mol),log10 biodegradation half-life (days),log10 Koa
FC(Cl)C(F)(F)C(F)(F)Cl (stereo not given),–,–,–,56.1 °C,2.46,–,–,–
CCCC(=O)C1=C(O)C(C)(C)C(O)=C(Cc2c(O)c(C)c(O)c(C(=O)CCC)c2O)C1=O,–,–,156 °C,–,–,–,–,–
C=C(C)C(=O)OCCN(C)C,–,–,-30 °C,186 °C,–,–,–,–
CCCCOC(=O)c1ccccc1C(=O)OCc1ccccc1,3.72,readily biodegradable,–,370 °C,-5.08,–,–,–
O=C([O-])Cc1ccccc1Nc1c(Cl)cccc1Cl.[Na+],–,–,284 °C,–,–,–,–,–
Fc1cc(F)c(F)nc1F,–,–,–,102 °C,–,–,–,–
CC(=O)N1CCCC(C)C1 (stereo not given),–,–,-13.6 °C,239 °C,–,–,–,–
Cc1cc(N)ccc1Cl,–,not readily biodegradable,83.5 °C,241 °C,–,–,–,–
O=Cc1cc([N+](=O)[O-])ccc1O,–,–,129 °C,–,–,–,–,–
O=C(O)CCc1cc(I)c(Oc2ccc(O)c(I)c2)c(I)c1,–,–,200 °C,–,–,–,–,–
O=Cc1cccc2ccccc12,–,–,33.5 °C,292 °C,–,–,–,–
CNC1=Nc2ccc(Cl)cc2C(c2ccccc2)=[N+]([O-])C1,–,–,236 °C,–,–,–,–,–
CCc1cccc(CC)c1,–,not readily biodegradable,-83.9 °C,181 °C,0.0531,–,0.845,–
CN.Cl,–,–,228 °C,–,–,–,–,–
CN=C(O)Sc1ccc(OS(C)(=O)=O)cc1,–,–,137 °C,–,–,–,–,–
Cc1ccc(O)c(N)c1,–,–,136 °C,–,–,–,–,–
O=C(O)c1ccc(F)cc1,–,–,185 °C,–,–,–,–,–
CCCCCCC(C)=O,–,readily biodegradable,-16 °C,172 °C,0.13,-3.73,–,–
Cc1cc(S(=O)(=O)c2ccccc2)ccc1NS(=O)(=O)C(F)(F)F,3.08,–,143 °C,–,–,–,–,–
O=COCc1ccccc1,–,–,–,203 °C,–,–,–,–
CCC(O)C(=O)O (stereo not given),–,–,44.2 °C,–,–,–,–,–
Clc1cc(Cl)c(C(Cl)Cl)cc1Cl,–,–,–,280 °C,–,–,–,–
CC(C)OCCO,–,not readily biodegradable,–,145 °C,–,-6.04,–,–
CCCCCCCCCCCCCCCBr,–,–,19 °C,322 °C,-3.83,–,–,–
Clc1cc(-c2c(Cl)ccc(Cl)c2Cl)c(Cl)c(Cl)c1Cl,–,–,–,–,–,-4.85,–,–

Compound,log10 Koc (L/kg),ready biodegradability,melting point,boiling point,log10 vapour pressure (mmHg),log10 Henry constant (atm·m³/mol),log10 biodegradation half-life (days),log10 Koa
COc1ccc(NC(=O)N(C)C)cc1Cl,1.72,–,126 °C,–,–,–,–,–
CN1CCC(N(Cc2ccccc2)c2ccccc2)CC1,–,–,115 °C,–,–,–,–,–
Cc1cnc2c(ccc3c(C)c(C)cnc32)c1C,–,–,278 °C,–,–,–,–,–
Cc1cocn1,–,–,–,88 °C,–,–,–,–
C[C@@H]1O[C@@H](Oc2c(-c3ccc(O)c(O)c3)oc3cc(O)cc(O)c3c2=O)[C@H](O)[C@H](O)[C@H]1O,–,–,170 °C,–,–,–,–,–
CCC(CO)(CO)CO,–,not readily biodegradable,–,–,–,–,–,–
CCCCCCCCCCCCCBr,–,–,6.2 °C,296 °C,-2.87,–,–,–
Oc1c(Cl)cc(Cl)c2ccccc12,–,not readily biodegradable,108 °C,–,–,–,–,–
COC(=O)c1c(Cl)nn(C)c1S(=O)(=O)NC(=O)Nc1nc(OC)cc(OC)n1,–,–,176 °C,–,–,–,–,–
O=C(O)CC(O)(CC(=O)O)C(=O)O,–,readily biodegradable,153 °C,–,-7.78,–,–,–
O=Cc1ccc2ccccc2n1,–,–,71 °C,–,–,–,–,–
OCc1c[nH]c2ccccc12,–,–,97.5 °C,–,–,–,–,–
C[C@@H]1O[C@@H](O)[C@H](O)[C@H](O)[C@H]1O,–,–,140 °C,–,–,–,–,–
Cc1c([N+](=O)[O-])c(C)c([N+](=O)[O-])c(C(C)(C)C)c1[N+](=O)[O-],–,not readily biodegradable,110 °C,–,–,–,–,–
Oc1c(F)c(F)cc(F)c1F,–,–,38 °C,140 °C,–,–,–,–
CCCC(=O)c1ccc(Cl)cc1,–,–,19.5 °C,–,–,–,–,–
CCCSc1ccc2[nH]c(NC(=O)OC)nc2c1,–,–,209 °C,–,–,–,–,–
C[Si](C)(Cl)CCl,–,–,–,116 °C,–,–,–,–
CCOc1ccc(NC(=O)CC(C)O)cc1 (stereo not given),–,–,160 °C,–,–,–,–,–
NS(=O)(=O)c1ccc(S(=O)(=O)CCO)c(F)c1,–,–,165 °C,–,–,–,–,–
CCOC(=O)c1cccc(Cl)c1,–,–,–,243 °C,–,–,–,–
Cc1cc(C)c(C(C)C)cc1C,–,–,21 °C,221 °C,–,–,–,–
Cl.NCCc1ccc(O)c(O)c1,–,–,249 °C,–,–,–,–,–
C=C(C)C(=O)OCC(C)C,–,–,–,155 °C,0.56,–,–,–
C#C[C@]1(O)CC[C@H]2[C@@H]3CCc4cc(OC5CCCC5)ccc4[C@H]3CC[C@@]21C,–,–,108 °C,–,–,–,–,–

Compound,log10 Koc (L/kg),ready biodegradability,melting point,boiling point,log10 vapour pressure (mmHg),log10 Henry constant (atm·m³/mol),log10 biodegradation half-life (days),log10 Koa
O=C(Cl)CCCC(=O)Cl,–,–,–,217 °C,-0.932,–,–,–
CC(=O)C=O,–,–,–,72 °C,–,-6.57,–,–
O=C1CCCCCC1=O,–,–,-40 °C,–,–,–,–,–
C1SCSCS1,–,–,220 °C,–,–,–,–,–
CC(=O)c1ccc(Cl)cc1Cl,–,–,33.5 °C,–,–,–,–,–
CCCCCCCCCCCCCCCCCC(=O)OC(C)C,–,–,28 °C,–,-4.4,–,–,–
O=C(O)CCCc1ccccc1,–,–,52 °C,290 °C,–,–,–,–
CO[Si](C)(OC)OC,–,–,–,102 °C,–,–,–,–
CCCCCCCCCCCCN,–,–,28.3 °C,259 °C,-2.09,–,–,–
COC(=O)C1(S(=O)(=O)c2ccc(C)cc2)CC1,–,–,97.2 °C,–,–,–,–,–
CC(C)(C)c1nnc(NS(=O)(=O)c2ccccc2)s1,–,–,163 °C,–,–,–,–,–
C=CCCC,–,–,-165 °C,29.9 °C,2.8,–,–,1.93
CC1(C)C2CCC1(C)C(Cl)C2 (stereo not given),–,–,132 °C,208 °C,–,–,–,–
CC(C)C(=O)C(C)C,–,–,-69 °C,125 °C,1.13,–,–,–
Cc1cc(C)ncn1,–,–,25 °C,159 °C,–,–,–,–
FC(Cl)=C(F)Cl,–,–,-130 °C,21.1 °C,2.95,–,–,–
O=C(Oc1ccccc1)c1ccccc1C(=O)Oc1ccccc1,–,–,73 °C,–,–,–,–,–
N#CC(F)(Cl)Cl,–,–,-110 °C,33 °C,–,–,–,–
OC(c1ccccc1)c1ccc(Cl)cc1 (stereo not given),–,–,60.8 °C,–,–,–,–,–
OCCOc1ccc(N=Nc2ccccc2)cc1,–,–,–,–,-7.67,–,–,–
CC(C)C=CC(C)C,–,–,–,–,1.64,–,–,–

# Same assay, conditions: fish
Compound,log10 BCF,log10 biotransformation half-life (days)
CC1OC(C)OC(C)O1 (stereo not given),0.48,–
CC(C)(C)c1ccc(C(=O)O)cc1,0.66,–
ClC1=C(Cl)C2(Cl)C3C4OC4C(Cl)C3C1(Cl)C2(Cl)Cl (stereo not given),–,2.2
COP(=S)(OC)Oc1ccc([N+](=O)[O-])cc1Cl,1.89,0.01
CCCCOC(=O)c1ccccc1C(=O)OCc1ccccc1,1.21,-1.03
CCc1cccc(CC)c1,2.73,0.09
Clc1cc(-c2c(Cl)ccc(Cl)c2Cl)c(Cl)c(Cl)c1Cl,–,2.47
Oc1c(Cl)cc(Cl)c2ccccc12,1.35,–
Cc1c([N+](=O)[O-])c(C)c([N+](=O)[O-])c(C(C)(C)C)c1[N+](=O)[O-],3.61,–
Clc1ccc(-c2cc(Cl)c(Cl)c(Cl)c2)cc1,–,1.69
OC(c1ccccc1)c1ccc(Cl)cc1 (stereo not given),1.79,-0.89
